Experimental data as given in patent US12616681B2, “Compositions and methods for treating renal injury” (priority 2019, dated 2026).
One block for each compound: values may come before it.

Tests used:
[1] = system: contrast-induced acute kidney injury (CIAKI) mice; assay: CIAKI mouse model: renal blood flow (laser Doppler flux); format: in vivo, C57/BL6 mice
Protocol: Total RBF was assessed by measuring renal Doppler flux using noninvasive laser Doppler flowmetry (PeriFlux System 5000, Perimed AB, Sweden). Laser Doppler probes were placed on the kidney surface to measure the renal flux. The flux was measured 48 h after CM administration. The relative increase represented the percentage increase in renal blood flow from baseline to peak for each test. Statistical significance was set as p<0.05.

[2] = system: contrast-induced acute kidney injury (CIAKI) mice; assay: CIAKI mouse model: renal function (serum creatinine, NGAL, KIM-1); format: in vivo, C57/BL6 mice
Protocol: Female mice were injected with 10 gI/kg of Visipaque (iodixanol) via the tail vein. […] For inhibition of the EP4s, mice were treated with 0.2 mg/kg/day of ONO-AE3-208 by subcutaneous injection for 14 days. Serum and kidney tissue were collected 48 h after the iodixanol injection.
Renal function was assessed by determining the serum levels of creatinine (Arbor Assays, Ann Arbor, MI, USA), NGAL (R&D Systems), and KIM-1 (R&D Systems) at 48 h after the iodixanol injection.

[3] = system: mice with ischemic AKI (bilateral renal IRI); assay: Renal IRI (ischemic AKI) mouse model: renal function markers; format: in vivo, C57/BL6 mice
Protocol: Briefly, mice were anesthetized with isoflurane using a vaporizer, and bilateral renal arteries were clamped for 30 min (2, 49). After the ischemic time, clamps were released to induce blood reperfusion. […] Serum and kidney tissue were collected 24 h after renal IRI. […] After reperfusion for 24 h, kidney tissues (˜20 mg) were homogenized in cold PBS containing indomethacin (10 μg/mL) and then centrifuged for 10 min at 12,000 rpm. Protein concentrations of supernatant were determined by BCA assay (ThermoFisher Scientific, Rockford, IL). The PGE2 level was measured using a PGE2 ELISA kit (R&D Systems, Minneapolis, MN) in triplicate. PGE2 levels were expressed as nanograms of PGE2 per milligram of protein. Renal function was assessed by determining the serum levels of blood urea nitrogen (BUN; Abcam), serum creatinine (Agilent 6410 LC-MS/MS, Agilent, Santa Clara, CA), lipocalin-2 (R&D Systems), and kidney injury molecule-1 (KIM-1; R&D Systems) after reperfusion for 24 h. Measurement of serum creatinine was by HPLC. Serum creatinine was assessed using an Agilent 6410 LC-MS/MS system coupled with an Agilent 1200 series HPLC system (Agilent). […] The mixture was centrifuged at 13,000 rpm for 10 min after vigorous vortex, and 1 μL of supernatant was then injected into the LC-MS/MS system. The chromatography separation was performed on a Hypersil GOLD C18 column (150×2.1 mm, 3 m, Thermo Scientific) using a mobile phase of 0.1% formic acid solution and acetonitrile [70:30 (vol/vol)]. The flow rate was 0.2 mL/min. Electrospray ionization was performed in the positive ion mode. The capillary voltage was set at 4,000 V. Nitrogen as the nebulizing gas was set at 15 psi, and the drying gas temperature was set at 300° C., with a flow rate of 6 L/min. The multiple-reaction monitoring mode using specific precursor/production transition was used for quantification. […] The peak areas for all analytes were integrated automatically using Agilent Mass Hunter Analysis software (version B.01.04).

[4] = system: human renal proximal tubular epithelial cells (hRPTECs); assay: hRPTEC cell viability (MTT assay) with iodixanol; format: cell-based; details: iodixanol 50 mgI/mL, 24 h; PGE1 100 ng/mL, PGE2 100 nM vs CM vehicle; CM vs normal control
[5] = system: contrast-induced acute kidney injury (CIAKI) mice; assay: CIAKI mouse model: necrotic and apoptotic cell death, gross findings; format: in vivo, C57/BL6 mice; details: 48 h after CM
Protocol: Kidneys were harvested at 48 h after the CM injection, fixed in 4% phosphate-buffered formalin, and embedded in paraffin. To evaluate necrosis, […] paraffin sections were stained with hematoxylin and eosin. Tubular injury was scored semi-quantitatively according to a system by a pathologist who examined at least 20 separate fields (400× magnification) in the outer medulla, which is the zone most sensitive to ischemic injury. The scoring system was as follows: 0, no damage; 1, patchy isolated unicellular necrosis; 2, tubular necrosis <25%; 3, tubular necrosis 25-50%; and 4, tubular necrosis >50%. At least 20 consecutive high-power fields per section were scored by two operators blind to the details of the experiment. To analyze the frequency of apoptosis, […] paraffin sections were subjected to terminal deoxynucleotidyl transferase-mediated dUTP nick-end labeling (TUNEL) assay (Millipore, Temecula, CA, USA) according to the manufacturer's protocol. Four […] paraffin sections were incubated with the TUNEL reaction mixture at 37° C. for 1 h, followed by incubation with a horseradish peroxidase-conjugated detection antibody. The signals were visualized using diaminobenzidine (Sigma-Aldrich). After counterstaining with Mayer's hematoxylin, TUNEL-positive cells were counted in at least five separate fields (640× magnification) in the outer medulla, and the apoptosis index (%, number of apoptosis cells/total number of cells) was calculated using GENASIS software.

[6] = system: human renal proximal tubular epithelial cells (hRPTECs); assay: hRPTEC apoptosis by flow cytometry with iodixanol; format: cell-based
Protocol: Human renal proximal tubular epithelial cells (hRPTECs) were purchased from the American Type Culture Collection (#PCS-400-010TM, Manassas, VA, USA). These cells were grown in 75 cm^2 flasks in Renal Epithelial Cell Basal Medium (PCS-400-030TM, ATCCVR) supplemented with Renal Epithelial Cell Growth Kit (PCS-400-040TM, ATCCVR).
After the treatment described in the section above, the hRPTECs were pelleted by centrifugation at 1800 rpm for 10 min and incubated with annexin V fluorescein isothiocyanate and propidium iodide using an Apoptosis Detection Kit I (#556547, BD Biosciences, San Jose, CA, USA) according to the manufacture's instruction. Then quantification was conducted using a FACSC flow cytometer with Cell Quest software (BD Biosciences).

mice = assay: Induction of CIAKI by intravenous contrast media in mice; format: in vivo, C57/BL6 mice; details: 10 gI/kg iv; for Cr vs normal control / KIM-1 vs normal control / NGAL vs normal control: 48 h after administration
Protocol: The two different […] in terms of viscosity and osmolality were administered intravenously to 5 mice for each group. Ten grams of iodine per body weight (gI/kg) of each CM was injected by a 26-gauge syringe through the tail vein. The blood samples for the analysis of functional assessment of kidney injury such as Cr, NGAL, and KIM-1 were taken at 48 h after administration (FIGS. 10(A, B)).

[7] = system: mice with ischemic AKI (bilateral renal IRI); assay: Renal IRI model: proinflammatory cytokines and HMGB1; format: in vivo, C57/BL6 mice; details: 24 h after renal IRI, vs IRI-vehicle mice
Protocol: Inflammatory cytokine mRNA and protein levels were measured by real-time PCR and ELISA. Kidney tissue and serum were harvested after reperfusion for 24 h. Total RNA was extracted from frozen kidney tissue using TRIzol reagent (ThermoFisher Scientific) according to the manufacturer's protocol. RNA was converted to cDNA using oligo-dT primers. IL-17, TNF-α, and IL-1b mRNA levels were determined by real-time PCR. Serum IL-17 (R&D Systems), TNF-α (R&D Systems), and IL-10 (R&D Systems) were measured using commercial ELISA kits according to the manufacturer's instructions.

[8] = system: mice with ischemic AKI (bilateral renal IRI); assay: Renal IRI model: necrotic and apoptotic cell death, gross pathology; format: in vivo, C57/BL6 mice; details: 24 h after renal IRI; 5 mg/kg ip three times
Source text: To evaluate necrosis, 5-μm-thick paraffin sections were stained with hematoxylin and eosin. Tubular injury of individual slides was scored semi-quantitatively according to a scoring system by a pathologist in a blinded manner. The scoring system was as follows: 0, no damage; 1, patchy isolated unicellular necrosis; 2, tubular necrosis <25%; 3, tubular necrosis 25-50%; and 4, tubular necrosis >50%. To analyze the frequency of apo ptosis, 5-μm-thick paraffin sections were subjected to a TUNEL assay (Millipore, Temecula, CA) according to the manufacturer's protocol. TUNEL-positive cells were counted in at least five separate fields (64 magnification) in the outer medulla, and the apoptosis index (in %, number of apoptosis cells/total number of cells) was calculated using GENASIS software.

[9] = system: mice with ischemic AKI (bilateral renal IRI); assay: Renal IRI model: cAMP, AMP and adenosine levels; format: in vivo, C57/BL6 mice; details: 24 h post-IRI, vs sham mice
Protocol: After reperfusion for 24 h, kidney tissues were harvested, homogenized in 10 volumes of 0.1 M HCl, and centrifuged for 10 min at 12,000 rpm. cAMP levels in kidney tissues and serum were measured using a cAMP Complete ELISA kit (Enzo Life Science, Farmingdale, NY). AMP and adenosine in kidney tissue were assessed by Agilent 6410 LC-MS/MS. Serum adenosine was measured using an assay kit (Abnova, Walnut, CA).

[10] = system: mice with ischemic AKI (bilateral renal IRI); assay: Renal IRI model: renal vasodilation and renal Doppler flux (RBF); format: in vivo, C57/BL6 mice; details: 24 h following IRI
Protocol: The inner arteriolar area of the outer medulla was determined using α-smooth muscle actin (α-SMA)-stained sections. Kidneys were removed without perfusion under inhalational isoflurane anesthesia, divided into three pieces horizontally, immediately fixed in 10% formalin, and then embedded in paraffin. The inner area of α-SMA-positive vessels in the outer medulla was measured using ImageJ. The results are expressed as average areas of renal arteries in the outer medulla. As a surrogate for RBF, we used noninvasive laser Doppler flowmetry (periflux system 5000, Perimed) to measure flux, placing laser-Doppler probes at a fixed position on the kidney surface and recording renal cortical measurements. […] The relative increase represents the percent increase in RDF from baseline to peak for each test.

[11] = system: mice with ischemic AKI (bilateral renal IRI); assay: Renal IRI model: PGE2 (EP1-EP4) and adenosine A2A receptor expression; format: in vivo, C57/BL6 mice; details: 24 h post-IRI
Protocol: PGE2 receptors (EP1, EP2, EP3, and EP4) and adenosineA2A receptor mRNA levels were deter-mined by real-time PCR. Their protein levels were determined by Western blot assay and immunofluorescence analysis.

[12] = iodixanol 10 gI/kg + vehicle, 48 h after CM

Structure (SMILES): CC(C(=O)Nc1cc(C#N)ccc1CCCC(=O)O)c1ccc(F)c2ccccc12 (stereo not drawn) [ONO-AE3-208]
increase in RBF by SW033291 treatment ([1]; ONO-AE3-208 with SW033291 (FIG. 15H)): blocked the increase | serum creatinine, absence or presence of ONO-AE3-208 ([2]; CIAKI mice (FIG. 15E), SW033291 line = CM + SW033291, ONO-AE3-208 line = CM + ONO-AE3-208 + SW033291): 1.51 ± 0.31 mg/dL | serum NGAL, absence or presence of ONO-AE3-208 ([2]; CIAKI mice (FIG. 15F), SW033291 line = CM + SW033291, ONO-AE3-208 line = CM + ONO-AE3-208 + SW033291): 229.85 ± 27.12 ng/mL | serum KIM-1, absence or presence of ONO-AE3-208 ([2]; CIAKI mice (FIG. 15G), SW033291 line = CM + SW033291, ONO-AE3-208 line = CM + ONO-AE3-208 + SW033291): 0.85 ± 0.26 ng/mL | beneficial effects of SW033291 on BUN, serum creatinine, serum Kim-1 and RDF-inferred RBF ([3]; ONO-AE3-208 10 mg/kg co-administered with the three-dose schedule of SW033291 in IRI mice): substantially blocked

Structure (SMILES): CCCCC[C@H](O)/C=C/[C@H]1[C@H](O)CC(=O)[C@@H]1CCCCCCC(=O)O [PGE1, prostaglandin E1]
cell viability (MTT), in words [4]: did not show any difference | TUNEL-positive cell proportions vs CIAKI mice, in words [5]: significantly lower | renal injury score, effect in words [5]: No reduction | vascular congestion in the outer medullary region (gross findings) [5]: prominent vascular congestion | preservation of RBF from CM-induced reduction, in words ([1]; 48 h after CM): did not | serum creatinine, effect in words ([2]; CIAKI mice, 48 h after CM): decreased | apoptotic rate vs CM vehicle group, in words ([6]; PGE1 100 ng/mL with iodixanol 50 mgI/mL): no differences

Cr vs normal control (mice): elevation | KIM-1 vs normal control (mice): elevation | NGAL vs normal control (mice): elevation
Structure (SMILES): CC(=O)N(CC(O)CN(C(C)=O)c1c(I)c(C(=O)NCC(O)CO)c(I)c(C(=O)NCC(O)CO)c1I)c1c(I)c(C(=O)NCC(O)CO)c(I)c(C(=O)NCC(O)CO)c1I (stereo not drawn) [Visipaque, iodixanol]
cell viability (MTT), in words [4]: significantly lower | serum KIM-1 in CM-treated mice [2, 12]: 1.41 ± 0.41 ng/mL | serum NGAL in CM-treated mice [2, 12]: 299.71 ± 38.64 ng/mL | serum creatinine in CM-treated mice [2, 12]: 1.94 ± 0.24 mg/dL | increase of apoptosis rate of hRPTECs in the CM group compared to the normal group ([6]; iodixanol 50 mgI/mL, 24 h): more than 2.5 times | necrosis and apoptosis (Renal injury score and TUNEL assay) vs normal control (mice; 48 h): significantly higher

Structure (SMILES): CN(CC(O)CO)C(=O)c1c(I)c(NC(=O)C(CO)CO)c(I)c(C(=O)N(C)CC(O)CO)c1I (stereo not drawn) [Xenetix]
Cr vs normal control (mice): significant increase | KIM-1 vs normal control (mice): did not show significant differences | NGAL vs normal control (mice): did not show significant differences

EP1 receptor mRNA levels [11]: increased | EP4 receptor mRNA levels [11]: reduced
Structure (SMILES): COc1ccc2c(c1)c(CC(=O)O)c(C)n2C(=O)c1ccc(Cl)cc1 [indomethacin, reference compound]
HMGB1 levels in kidney tissue [7]: increased | tissue congestion in the outer medulla (gross pathology) [8]: worsened | BUN (serum) ([3]; 24 h after renal IRI, vs IRI-vehicle mice, dosing before and after IRI): increase | renal cAMP [9]: reduced | RDF-inferred RBF [10]: reduced | levels of EP2 receptors [11]: no effect | levels of EP3 receptors [11]: no effect
